Source: ChEMBL document CHEMBL5154787 (J Med Chem, 2022)

Columns and labels:
Cytochrome P450 2D6 = Cytochrome P450 2D6 (Homo sapiens, UniProt P10635); assay: Inhibition of CYP2D6 (unknown origin) incubated for 10 mins in presence of NADPH by LC-MS/MS analysis; type: ADME
[1] = Metabolic stability in cynomolgus monkey liver microsomes assessed as half life incubated at 0.5 uM for 10 mins in presence of NADPH by LC-MS/MS analysis; type: ADME, Macaca fascicularis, Microsome
[2] = Protein binding in human plasma assessed as unbound fraction measured after 3 hrs by LC/MS/MS analysis; type: ADME, cell-free
[3] = Protein binding in rat plasma assessed as unbound fraction measured after 3 hrs by LC/MS/MS analysis; type: ADME, cell-free
[4] = Metabolic stability in human liver microsomes assessed as half life incubated at 0.5 uM for 10 mins in presence of NADPH by LC-MS/MS analysis; type: ADME, Microsome
[5] = Oral bioavailability in rat at 3 mg/kg or 2 mg/kg,iv; type: ADME, organism-based; conditions: in vivo
[6] = Metabolic stability in human liver microsomes assessed as parent compound remaining at 0.5 uM incubated for 10 mins in presence of NADPH by LC-MS/MS analysis; type: ADME, Microsome; conditions: read-out: Stability
[7] = Volume of distribution at steady state in rat at 3 mg/kg,po or 2 mg/kg,iv; type: ADME, organism-based; conditions: in vivo
[8] = Metabolic stability in dog microsomes assessed as half life incubated at 0.5 uM for 10 mins in presence of NADPH by LC-MS/MS analysis; type: ADME, Canis lupus familiaris, Liver, Microsome
[9] = Permeability of compound at pH 7.4 incubated for 4 hrs by PAMPA assay; type: ADME; conditions: read-out: permeability
[10] = Cardiotoxicity in aortic ring (unknown origin) assessed as relaxation of phenylephrine induced aortic ring contraction at 10 uM incubated for 1 hr; type: toxicity, tissue-based, Aorta; design: scale not given: the % may be the effect or the level left; conditions: human
[11] = target: AP2-associated protein kinase 1 (Homo sapiens, UniProt Q2M2I8); assay: Inhibition of full length human AAK1 expressed in HEK293F cells assessed as suppression of AP2 phosphorylation measured after 3 hrs by Western blot analysis based cellular assay; type: cell-based
[12] = Total body clearance in rat at 3 mg/kg, po or 2 mg/kg, iv; type: ADME, organism-based; conditions: in vivo, read-out: CLt/F
[13] = Efflux ratio of permeability in human Caco-2 cells; type: ADME, cell-based
[14] = Metabolic stability in mouse liver microsomes assessed as parent compound remaining at 0.5 uM incubated for 10 mins in presence of NADPH by LC-MS/MS analysis; type: ADME, Microsome
[15] = Metabolic stability in rat liver microsomes assessed as parent compound remaining at 0.5 uM incubated for 10 mins in presence of NADPH by LC-MS/MS analysis; type: ADME, Microsome; conditions: read-out: Stability
[16] = Inhibition of sodium channel voltage-sensing domain (unknown origin); design: species or system Homo sapiens
[17] = Metabolic stability in mouse liver microsomes assessed as half life incubated at 0.5 uM for 10 mins in presence of NADPH by LC-MS/MS analysis; type: ADME, Microsome
Cytochrome P450 3A4 [18] = target: T1, Cytochrome P450 3A4 (Homo sapiens, UniProt P08684); assay: Inhibition of […] (unknown origin) using BFC as substrate incubated for 10 mins in presence of NADPH by LC-MS/MS analysis; type: ADME
[19] = Half life in rat at 3 mg/kg, po or 2 mg/kg, iv; type: ADME, organism-based; conditions: in vivo
[20] = target: MAP kinase-interacting serine/threonine-protein kinase 2 (Homo sapiens, UniProt Q9HBH9); assay: Inhibition of MNK2 (unknown origin)
[21] = Permeability of compound at pH 5.5 incubated for 4 hrs by PAMPA assay; type: ADME; conditions: read-out: permeability
[22] = Permeability across basolateral to apical side in human Caco-2 cells; type: ADME, cell-based; conditions: read-out: permeability
Cytochrome P450 2B6 = target: T2, Cytochrome P450 2B6 (Homo sapiens, UniProt P20813); assay: Inhibition of CYP2B6 (unknown origin) incubated for 10 mins in presence of NADPH by LC-MS/MS analysis; type: ADME
T2 sequence (P20813 whole entry): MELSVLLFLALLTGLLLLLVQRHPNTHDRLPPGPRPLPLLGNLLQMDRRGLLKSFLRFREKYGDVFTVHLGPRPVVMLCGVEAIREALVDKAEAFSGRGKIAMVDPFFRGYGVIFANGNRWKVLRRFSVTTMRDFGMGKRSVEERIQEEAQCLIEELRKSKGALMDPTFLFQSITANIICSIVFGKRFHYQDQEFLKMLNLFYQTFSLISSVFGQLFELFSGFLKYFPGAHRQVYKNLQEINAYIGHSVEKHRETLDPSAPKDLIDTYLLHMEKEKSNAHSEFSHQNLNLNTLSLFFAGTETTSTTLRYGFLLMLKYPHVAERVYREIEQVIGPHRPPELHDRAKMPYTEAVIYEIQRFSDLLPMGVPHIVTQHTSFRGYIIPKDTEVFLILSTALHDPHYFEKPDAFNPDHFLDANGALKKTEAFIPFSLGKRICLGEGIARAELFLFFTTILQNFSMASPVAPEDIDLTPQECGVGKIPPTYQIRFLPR

Cytochrome P450 1A2 = target: T3, Cytochrome P450 1A2 (Homo sapiens, UniProt P05177); assay: Inhibition of CYP1A2 (unknown origin) incubated for 10 mins in presence of NADPH by LC-MS/MS analysis; type: ADME
T3 sequence (P05177 whole entry): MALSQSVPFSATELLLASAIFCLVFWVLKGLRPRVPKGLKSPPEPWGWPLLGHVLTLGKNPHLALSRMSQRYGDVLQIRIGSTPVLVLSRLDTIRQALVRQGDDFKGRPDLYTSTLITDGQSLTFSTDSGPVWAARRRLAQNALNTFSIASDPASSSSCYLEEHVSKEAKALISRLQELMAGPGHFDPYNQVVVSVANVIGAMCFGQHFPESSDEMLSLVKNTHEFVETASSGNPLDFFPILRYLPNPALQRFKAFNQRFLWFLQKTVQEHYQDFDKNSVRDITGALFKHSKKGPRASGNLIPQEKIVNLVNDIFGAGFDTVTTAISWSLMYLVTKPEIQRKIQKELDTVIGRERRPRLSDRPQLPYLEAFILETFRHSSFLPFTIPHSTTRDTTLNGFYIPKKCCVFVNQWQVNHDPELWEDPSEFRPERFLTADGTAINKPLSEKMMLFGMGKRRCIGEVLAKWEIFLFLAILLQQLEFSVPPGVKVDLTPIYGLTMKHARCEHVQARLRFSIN

[23] = Inhibition of calcium channel (unknown origin); design: species or system Homo sapiens
Cytochrome P450 2C9 = Cytochrome P450 2C9 (Homo sapiens, UniProt P11712); assay: Inhibition of CYP2C9 (unknown origin) incubated for 10 mins in presence of NADPH by LC-MS/MS analysis; type: ADME
[24] = Metabolic stability in rat liver microsomes assessed as half life incubated at 0.5 uM for 10 mins in presence of NADPH by LC-MS/MS analysis; type: ADME, Microsome
[25] = Permeability across apical to basolateral side in human Caco-2 cells; type: ADME, cell-based; conditions: read-out: permeability
[26] = target: BMP-2-inducible protein kinase (Homo sapiens, UniProt Q9NSY1); assay: Inhibition of BIKE (unknown origin)
Cytochrome P450 3A4 [27] = target: T1, Cytochrome P450 3A4; assay: Inhibition of CYP3A4 (unknown origin) incubated for 10 mins in presence of NADPH by LC-MS/MS analysis; type: ADME

T1 sequence (P08684 whole entry): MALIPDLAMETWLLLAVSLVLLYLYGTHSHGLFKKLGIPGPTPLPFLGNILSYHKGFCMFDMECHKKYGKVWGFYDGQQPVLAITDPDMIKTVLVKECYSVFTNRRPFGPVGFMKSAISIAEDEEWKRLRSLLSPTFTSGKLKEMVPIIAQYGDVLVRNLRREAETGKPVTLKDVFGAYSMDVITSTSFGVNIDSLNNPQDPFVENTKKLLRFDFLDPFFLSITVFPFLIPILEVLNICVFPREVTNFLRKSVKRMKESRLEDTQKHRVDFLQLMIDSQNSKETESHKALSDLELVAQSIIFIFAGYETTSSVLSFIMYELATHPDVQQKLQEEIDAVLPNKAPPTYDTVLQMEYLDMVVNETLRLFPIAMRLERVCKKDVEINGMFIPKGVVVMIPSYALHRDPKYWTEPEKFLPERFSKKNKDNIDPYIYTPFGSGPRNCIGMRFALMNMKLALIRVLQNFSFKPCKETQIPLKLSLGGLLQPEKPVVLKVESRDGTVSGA
AP2-associated protein kinase 1, sequence (Q2M2I8 whole entry): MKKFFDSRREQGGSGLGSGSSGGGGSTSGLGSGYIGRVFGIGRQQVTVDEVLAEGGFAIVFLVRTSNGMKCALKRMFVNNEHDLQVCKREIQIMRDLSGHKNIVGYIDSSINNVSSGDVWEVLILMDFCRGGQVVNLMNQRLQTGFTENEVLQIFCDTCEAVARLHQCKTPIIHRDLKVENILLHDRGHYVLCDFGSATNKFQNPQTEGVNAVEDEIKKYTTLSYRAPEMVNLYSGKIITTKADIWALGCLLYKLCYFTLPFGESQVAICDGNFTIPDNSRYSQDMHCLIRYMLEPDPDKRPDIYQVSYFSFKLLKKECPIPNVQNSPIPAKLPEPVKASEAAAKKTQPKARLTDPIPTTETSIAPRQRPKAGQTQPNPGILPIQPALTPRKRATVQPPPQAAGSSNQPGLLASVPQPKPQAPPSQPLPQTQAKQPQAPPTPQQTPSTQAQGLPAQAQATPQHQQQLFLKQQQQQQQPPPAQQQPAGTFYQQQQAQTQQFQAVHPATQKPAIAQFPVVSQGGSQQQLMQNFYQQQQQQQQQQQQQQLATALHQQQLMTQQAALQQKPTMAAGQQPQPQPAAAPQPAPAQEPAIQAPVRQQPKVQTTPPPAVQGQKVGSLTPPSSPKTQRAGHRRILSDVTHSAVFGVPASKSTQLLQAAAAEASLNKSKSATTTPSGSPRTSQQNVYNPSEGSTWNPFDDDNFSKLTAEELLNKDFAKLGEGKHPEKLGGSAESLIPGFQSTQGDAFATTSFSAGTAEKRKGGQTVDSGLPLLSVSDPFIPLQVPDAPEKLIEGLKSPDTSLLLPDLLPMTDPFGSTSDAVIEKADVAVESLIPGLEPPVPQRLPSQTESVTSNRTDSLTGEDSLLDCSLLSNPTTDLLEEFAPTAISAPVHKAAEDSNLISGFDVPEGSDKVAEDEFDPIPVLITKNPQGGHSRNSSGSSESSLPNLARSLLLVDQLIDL
Cytochrome P450 2D6, sequence (P10635 whole entry): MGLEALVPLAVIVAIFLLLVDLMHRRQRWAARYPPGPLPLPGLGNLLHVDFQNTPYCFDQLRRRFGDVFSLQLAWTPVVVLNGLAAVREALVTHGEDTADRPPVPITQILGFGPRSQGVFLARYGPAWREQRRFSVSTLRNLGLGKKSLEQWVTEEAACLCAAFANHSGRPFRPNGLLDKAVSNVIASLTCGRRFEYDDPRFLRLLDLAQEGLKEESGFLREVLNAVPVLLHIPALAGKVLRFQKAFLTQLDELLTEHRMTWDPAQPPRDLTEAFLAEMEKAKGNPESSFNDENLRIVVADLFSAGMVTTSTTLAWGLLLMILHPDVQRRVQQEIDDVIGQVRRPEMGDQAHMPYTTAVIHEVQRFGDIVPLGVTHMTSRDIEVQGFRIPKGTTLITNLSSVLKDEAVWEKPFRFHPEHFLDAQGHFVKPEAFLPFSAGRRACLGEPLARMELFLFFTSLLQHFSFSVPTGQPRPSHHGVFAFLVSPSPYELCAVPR
Cytochrome P450 2C9, sequence (P11712 whole entry): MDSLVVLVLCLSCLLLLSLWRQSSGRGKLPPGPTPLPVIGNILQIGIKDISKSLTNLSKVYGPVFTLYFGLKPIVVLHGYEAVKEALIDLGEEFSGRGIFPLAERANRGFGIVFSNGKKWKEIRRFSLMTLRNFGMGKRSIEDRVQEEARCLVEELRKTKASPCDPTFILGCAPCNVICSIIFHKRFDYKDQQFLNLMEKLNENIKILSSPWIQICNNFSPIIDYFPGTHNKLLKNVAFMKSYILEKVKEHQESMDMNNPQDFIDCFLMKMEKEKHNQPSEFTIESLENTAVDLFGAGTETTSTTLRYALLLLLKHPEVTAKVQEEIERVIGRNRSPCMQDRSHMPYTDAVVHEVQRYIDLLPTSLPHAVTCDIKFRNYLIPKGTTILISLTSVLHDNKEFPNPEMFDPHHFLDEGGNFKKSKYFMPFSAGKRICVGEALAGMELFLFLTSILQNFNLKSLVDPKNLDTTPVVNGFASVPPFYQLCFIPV
BMP-2-inducible protein kinase, sequence (Q9NSY1 whole entry): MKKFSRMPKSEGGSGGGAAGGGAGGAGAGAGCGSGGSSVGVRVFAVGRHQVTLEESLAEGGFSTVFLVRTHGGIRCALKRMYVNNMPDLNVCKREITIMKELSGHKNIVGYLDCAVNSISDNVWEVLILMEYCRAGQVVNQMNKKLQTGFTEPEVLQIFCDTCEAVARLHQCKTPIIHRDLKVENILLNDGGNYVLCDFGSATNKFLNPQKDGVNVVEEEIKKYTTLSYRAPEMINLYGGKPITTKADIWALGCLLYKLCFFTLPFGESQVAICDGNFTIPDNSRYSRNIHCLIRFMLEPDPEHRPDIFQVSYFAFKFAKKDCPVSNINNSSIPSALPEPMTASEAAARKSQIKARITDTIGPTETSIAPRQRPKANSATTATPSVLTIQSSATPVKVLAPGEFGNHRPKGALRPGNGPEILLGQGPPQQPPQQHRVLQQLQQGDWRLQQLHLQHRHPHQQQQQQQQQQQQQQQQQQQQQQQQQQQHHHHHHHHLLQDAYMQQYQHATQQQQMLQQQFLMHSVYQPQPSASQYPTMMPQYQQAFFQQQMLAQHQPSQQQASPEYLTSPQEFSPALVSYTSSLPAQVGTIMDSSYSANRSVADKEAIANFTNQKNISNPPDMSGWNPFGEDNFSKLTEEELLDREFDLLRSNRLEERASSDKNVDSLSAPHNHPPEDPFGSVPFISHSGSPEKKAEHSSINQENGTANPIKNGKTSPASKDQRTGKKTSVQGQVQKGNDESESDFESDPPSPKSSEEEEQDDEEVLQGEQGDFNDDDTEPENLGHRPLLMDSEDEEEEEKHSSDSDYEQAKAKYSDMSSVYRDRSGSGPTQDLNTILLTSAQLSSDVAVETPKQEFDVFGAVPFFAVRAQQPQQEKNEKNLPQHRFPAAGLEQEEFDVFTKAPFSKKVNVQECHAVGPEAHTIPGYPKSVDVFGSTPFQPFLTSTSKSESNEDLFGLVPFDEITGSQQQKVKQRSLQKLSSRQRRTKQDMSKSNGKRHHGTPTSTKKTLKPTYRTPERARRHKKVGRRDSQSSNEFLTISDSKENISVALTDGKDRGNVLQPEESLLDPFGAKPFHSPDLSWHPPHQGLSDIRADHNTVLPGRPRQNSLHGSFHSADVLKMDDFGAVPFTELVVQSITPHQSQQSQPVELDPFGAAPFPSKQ
MAP kinase-interacting serine/threonine-protein kinase 2, sequence (Q9HBH9 whole entry): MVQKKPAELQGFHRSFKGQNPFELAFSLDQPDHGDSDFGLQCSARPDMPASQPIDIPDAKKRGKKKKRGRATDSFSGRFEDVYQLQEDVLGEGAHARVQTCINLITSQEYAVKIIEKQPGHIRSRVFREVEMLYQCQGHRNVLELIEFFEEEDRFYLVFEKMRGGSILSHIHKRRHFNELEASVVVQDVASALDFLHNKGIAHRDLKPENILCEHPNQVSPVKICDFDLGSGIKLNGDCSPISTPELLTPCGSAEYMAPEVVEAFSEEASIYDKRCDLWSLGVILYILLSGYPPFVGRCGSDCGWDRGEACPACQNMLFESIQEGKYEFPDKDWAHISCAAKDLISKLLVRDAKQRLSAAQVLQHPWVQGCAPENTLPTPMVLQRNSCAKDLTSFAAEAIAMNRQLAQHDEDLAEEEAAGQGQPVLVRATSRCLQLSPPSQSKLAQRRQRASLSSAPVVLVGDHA

Compound | IC50 (Cytochrome P450 2D6) [µM] | half-life at 0.5 µM [1] [h] | fraction unbound at 3 h [2] | fraction unbound at 3 h [3] | half-life at 0.5 µM [4] [h] | bioavailability [5] [%] | remaining at 10 min, 0.5 µM [6] [%] | Vdss [7] [L/kg] | half-life at 0.5 µM [8] [h] | Papp at 4 h [9] [×10⁻⁶ cm/s] | Activity [10] [%] | IC50 [11] [µM] | CL/F [12] [mL/min/kg] | efflux ratio [13] | remaining at 10 min, 0.5 µM [15] [%] | IC50 [16] [µM] | IC50 (Cytochrome P450 3A4 [18]) [µM] | half-life [19] [h] | IC50 [20] [µM] | Papp at 4 h [21] [×10⁻⁶ cm/s] | other results
COC(=O)Nc1cc(-c2cnc(OC[C@@](C)(N)CC(C)C)c(C)c2)ccn1 | > 20 | 1.28 | 0.115 | 0.105 | > 2 | 77 | 92 | 30.9 | > 2 | 69.7 | 66 | 0.0034 | 63.6 | 1 | 83 | 11.5 | > 20 | 7.55 | 1.3 | 56.5 | Stability ([14]; microsomes, 10 min, 0.5 µM): 68%; t1/2 ([17]; microsomes, 10 min, 0.5 µM): 0.9 h; Papp B→A [22]: 17.3 ×10⁻⁶ cm/s; IC50 (Cytochrome P450 2B6): > 20 µM; IC50 (Cytochrome P450 1A2): > 20 µM; IC50 [23]: 35.3 µM; IC50 (Cytochrome P450 2C9): > 20 µM; half-life at 0.5 µM [24]: 0.7 h; Papp A→B [25]: 17.2 ×10⁻⁶ cm/s; IC50 [26]: 0.01 µM; IC50 (Cytochrome P450 3A4 [27]): > 20 µM
CC(C)C[C@](C)(N)COc1cnc(-c2ccnc(C(F)F)c2)cc1C(F)F | > 20 | 0.293 | 0.125 | 0.122 | > 2 | 22 | 89 | 41.3 | 0.433 | 45.8 | 58 | 0.0005 | 119 | 0.7 | 85 | 7.4 | > 20 | 5.02 | 1.6 | 40.6 | remaining at 10 min, 0.5 µM ([14]; liver microsomes, read-out: Stability): 89%; half-life at 0.5 µM ([17]; liver microsomes): > 2 h; Papp B→A [22]: 15.3 ×10⁻⁶ cm/s; IC50 (Cytochrome P450 2B6): > 20 µM; IC50 (Cytochrome P450 1A2): > 20 µM; IC50 [23]: 18.8 µM; IC50 (Cytochrome P450 2C9): > 20 µM; half-life at 0.5 µM [24]: 1.27 h; Papp A→B [25]: 23.5 ×10⁻⁶ cm/s; IC50 [26]: 0.18 µM; IC50 (Cytochrome P450 3A4 [27]): > 20 µM
